According to US20070134319A1, “Pharmaceutical formulations of bisphosphonates” (priority 2003, published 2007):

Source text: The solubility of zoledronic acid in [sequence] 44/14 and [sequence]

For `O=P(O)(O)C(O)(Cn1ccnc1)P(=O)(O)O` [zoledronic acid, 1-hydroxy-2-(imidazol-1-yl)ethane-1,1-diphosphonic acid], which “Zoledronic acid solubility in all the excipients (liquid lipidic media)” value (assessed visually) is on record?
The value was < 0.2 mg/g of excipient.

And the “Solubility of zoledronic acid in VITAMIN E-TPGS” value (at 40° C.)?
Its value is “less than 0.22 mg/g”.

What about the “Solubility of zoledronic acid in GELUCIRE 50/13” value (at 60° C.) of the same compound?
The value was “less than 1 mg/g”.

And the “Solubility in pH 4.5 acetate buffer” value (pH 4.5)?
Its value is “readily soluble”.

And the “Precipitation upon addition of flush” value (pH 4.5 acetate buffer solution, tap water (final pH 3.8) or citric acid (final pH~2.2) flush)?
Its value is “does not precipitate out”.
